Measured values reported in patent publication US20220313650A1, “METHODS FOR TREATING NEURODEVELOPMENTAL DISORDERS” (The Broad Institute, Inc., priority 2019, published 2022).
Entries after “also recorded” stand apart in the source; their conditions may differ.

How the values were obtained:
[1] = system: WT mice; assay: Open field test of locomotor activity, WT mice; format: in vivo
Description: (§1) For performing the open field test, mice were allowed to habituate to the behavioral testing room for 1 hour before the experiment. The locomotor activity in mice was evaluated over a 90 minute period in an automated Omnitech Digiscan apparatus (AccuScan Instruments). Locomotor activity was assessed as total distance traveled (m). For drug treatment experiments, mice received an intraperitoneal injection 15 minutes before the assay and then where placed kindly in the left corner, head facing into the corner.
(§2) The effects of mGluR2/3 activation on the locomotor activity of WT mice and Ptchd1 mutant mice were evaluated. In brief, all mice were treated with mGluR2/3 agonist, LY379268, at three different dosages (1 mg/kg, 5 mg/kg and 10 mg/kg) for open-field testing.
(§3) Here, whether mGluR3 activation would rescue the hyperactivity phenotype of Ptchd1 KO mice was evaluated. Locomotor activity estimated as total distance travelled (in) was assessed over a 90 min period in an automated Omnitech Digiscan apparatus. For drug treatment experiments, mice were placed in the open-field arena for 30 minutes prior to Mavalon 63 (5 mg/kg and 10 mg/kg in saline; i.p.), or vehicle injections before being returned to the arena.

[2] = system: Ptchd1 KO mice; assay: Open field test of locomotor activity, Ptchd1 KO mice; format: in vivo
Description: as §1, §2, §3

[3] = system: cortico-TRN synapses; assay: Optogenetically evoked EPSCs in patched TRN neurons, cortico-TRN pathway; format: cell-based, mice; details: cortico-TRN synapses, before vs after bath application
Description: (§4) For conducting slice electrophysiology analysis, whole-cell patch-clamp recordings were performed using horizontal slices for the rebound bursting assays and angled-coronal thalamocortical slices for the synaptic optogenetics experiments (Agmon et al., 1991). 21-35 day old male C57BL6 mice and Ptchd1 Y/− (knockout) mice were used. Animals were transcardially perfused under isoflurane anesthesia with an ice-cold cutting solution (194 mM Sucrose, 30 mM NaCl, 4.5 mM KCl, 1.2 mM NaH2PO4, 10 mM Glucose, 2 mM MgCl2, 0.2 mM CaCl2, and 26 mM NaHCO3). Mice were then decapitated and the brains were carefully dissected out. Both cerebellum and olfactory bulb were removed from the brain and were placed and glued onto the stage of a Leica Vibratome with the ventral surface down and the pial surface towards the blade. 250 micron thick slices containing the TRN were then collected and recovered in regular artificial cerebrospinal fluid (aCSF; 119 mM NaCl, 2.3 mM KCl, 1 mM NaH2PO4; 11 mM Glucose, 1.3 mM MgCl2, 2.5 mM CaCl2), 26 mM NaHCO3) heated to 32° C. for 10 minutes and then at room temperature for at least 1 hr. All buffers were continuously bubbled with 95% O2/5% C02. Slices were then transferred to a submersion recording chamber where they were perfused with aCSF at a rate of 2 ml/min at room temperature. Patch recording pipettes were pulled using a Flaming/Brown micropipette puller (Sutter Instruments) and Borosilicate glass (KG33, King Precision Glass). The DC resistances were ˜4-6 MΩ. Potassium methanesulfonate based internal solution (140 mM KMeSO3; 10 mM KCl; 10 mM HEPES; 0.1 mM EGTA; 4 mM Mg-ATP; 0.2 mM Na-GTP; 10 mM hosphocreatine) was used. Neurons were visualized using infrared differential interference contrast (IR-DIC) microscopy (Olympus, BX51W1) with an upright microscope digital camera.
To study the changes in the acute somatosensory thalamocortical or horizontal brain areas, 21-25 days old Nex-Cre or VgluT2-Cre mice were anesthetized with isoflurane while placed in a small animal stereotaxic apparatus (David Kopf Instruments, CA, USA) and were injected bilaterally with 280 nl of mcherry-dflox.hChR2.EF1.AAV1 using a Nanoject (Drummond Scientific, Broomall, Pa.) via glass pipettes with […] diameter tips in somatosensory cortex (S1) and ventrobasal thalamic complex (VB). Coordinates from the bregma for S1: AP −0.7, ML 2.4 and DV 1.2 and for VB: AP −1.6, ML 1.5 and DV 3.5. The pipette was held in the final position for 10 min after injection before withdrawal from the brain. The incision was closed with vetbond and after surgery mice were injected with analgesics (SR-Bupronex 1 mg/kg) every 72 hours or as needed. […]
(§5) After allowing 1-2 weeks for mcherry-dflox.hChR2.EF1.AAV1 expression, acute somatosensory thalamocortical or horizontal brain slices were freshly obtained for in vitro recording and optogenetic stimulation (250 um thick, thalamocortical slices containing TRN from angled-coronal sections; Agmon and Connors, 1991) for optogenetic analysis. In brief, patch clamp recordings in voltage clamp configuration were performed while the Cortico-TRN or Thalamic-TRN pathway was activated by applying a blue LED (400-450 nm) light pulses (Lumen 300-LED Fluorescence Excitation Illumination System). For synaptic stimulation, neurons were held at −70 mV while 0.1-1.5 ms flashes were delivered directly to the recorded cell soma delivered through the 40× water immersion objective. […]

[4] = system: thalamo-TRN synapses; assay: Optogenetically evoked EPSCs in patched TRN neurons, thalamo-TRN pathway; format: cell-based, mice; details: thalamo-TRN synapses, before vs after bath perfusion
Description: as §4, with “camera. […]” for “camera.”
as §5

[5] = system: WT TRN neurons; assay: Whole-cell patch-clamp rebound burst firing in acute brain slices, WT mice; format: cell-based
Description: as §4
The recordings were made with a microelectrode amplifier with bridge and voltage clamp modes of operation (Multiclamp 700B, Molecular Devices, San Jose, Calif., USA). Signals were low-pass filtered at 2 kHz and sampled at 10-20 kHz with a Digidata 1440A (Molecular Devices, San Jose, Calif., USA). Data were stored on a computer for subsequent off-line analysis. Cells with the series resistance (Rs, typically 8-12 MΩ) changed by >20% were excluded for data analysis. In addition, cells with Rs more than […] at any time during the recordings were discarded.

[6] = system: Ptchd1 KO mice; assay: EEG/EMG sleep recording, Ptchd1 KO mice; format: in vivo; details: Ptchd1 KO mice, Mavalon 63 10 mg/kg ip, 12 h recordings; 10 mg/kg
Description: (§6) For EEG recording studies, 8- to 12-week-old male mice with C57Bl/6J background, Ptchd1Y/− (knockout) and Ptchd1Y/+ (wild type) were deeply anesthetized with a 1% to 1.5% isoflurane. A screw electroencephalography (EEG) electrode (catalog no. 8403; Pinnacle Technology, Inc.) was implanted into the skull above the primary somatosensory cortex, S1 (AP: −1.8 and ML: +3.0 mm) using a stereotaxic device (David Kopf Instruments). A reference electrode was screwed in the occipital region of the skull and stainless steel electromyography (EMG) electrodes were placed in the nuchal muscle. All the electrodes were connected to a head-mount (catalog no. 8201-SS; Pinnacle Technology) and secured by using dental cement. The mice were allowed to recover for at least 2 weeks. Spontaneous EEG/EMG signals were recorded for 12 hours with a differential amplifier (8200-K1-SL amplifier; Pinnacle Technology). All signals were digitized at a sampling frequency of 1,000 Hz, filtered (1-100 Hz bandpass for EEG; 10-1 kHz bandpass for EMG), and acquired using Sirenia Acquisition program (Pinnacle Technology). Data were analyzed offline using Matlab (R2016a; MathWorks). The spectral power was calculated in 0.5-Hz bins (fast Fourier transform with Hamming window) with artifact-free 4-hour EEG signals from each animal. The power for the spectral band was normalized in reference to the power of the entire EEG spectrum (1-100 Hz) in each animal and averaged across all the animals in the same treatment or drug condition.
(§7) EEG and EMG from the frontal and parietal cortex and from the nuchal muscular complex were simultaneously recorded.
(§8) Surface electroencephalography (EEG) and electromyography (EMG) from the frontal and parietal cortex and from the nuchal muscular complex were simultaneously recorded.

[7] = system: wild type mice; assay: EEG/EMG sleep recording, WT mice; format: in vivo; details: Mavalon 63 10 mg/kg ip, 12 h recordings, 10 mg/kg
Description: as §6, with “All signals were digitized at a sampling frequency of 1,000 Hz, filtered (1-100 Hz bandpass for EEG; 10-1 kHz bandpass for EMG), and acquired using Sirenia Acquisition program (Pinnacle Technology).” left out, “The power for the spectral band was normalized in reference to the power of the entire EEG spectrum (1-100 Hz) in each animal and averaged across all the animals in the same treatment or drug condition.” left out
as §7, §8

[8] = system: Ptchd1 KO TRN neurons; assay: Whole-cell patch-clamp rebound burst firing in acute brain slices, Ptchd1 KO mice; format: cell-based; details: Mavalon 63
Description: as §4, with “Patch recording pipettes were pulled using a Flaming/Brown micropipette puller (Sutter Instruments) and Borosilicate glass (KG33, King Precision Glass). The DC resistances were ˜4-6 MΩ. Potassium methanesulfonate based internal solution (140 mM KMeSO3; 10 mM KCl; 10 mM HEPES; 0.1 mM EGTA; 4 mM Mg-ATP; 0.2 mM Na-GTP; 10 mM hosphocreatine) was used. Neurons were visualized using infrared differential interference contrast (IR-DIC) microscopy (Olympus, BX51W1) with an upright microscope digital camera.” left out

Row | Structure (SMILES) | locomotor activity ([1]; WT mice, AZD8529 three dosing levels i.p., 90 minutes) | locomotor activity ([2]; AZD8529 10, 20, 50 mg/Kg i.p., 90 minutes) | paired-pulse ratio (PPR) [3] | paired-pulse ratio (PPR) [4] | rebound burst firing, occlusion experiment ([5]; LY379268 applied in the presence of (after pretreatment with) ML337) | number of rebound burst firings ([5]; TRN neurons, ML337 5 μM bath application alone) | locomotor activity (total distance travelled) ([1]; WT mice, Mavalon 63 5 mg/kg and 10 mg/kg i.p., 90 min) | spontaneous locomotion activity ([1]; wild type mice, Mavalon 63 30 mg/kg i.p.) | locomotor activity (total distance travelled) ([2]; Mavalon 63 5 mg/kg and 10 mg/kg i.p., 90 min) | locomotor activity (hyperactivity) ([2]; Mavalon 63 30 mg/kg i.p., p=0.06, Bonferroni's multiple comparisons test) | hyperactivity phenotype, summary over doses ([2]; Mavalon 63 5, 10, 30 mg/Kg i.p., dose-dependent manner) | length of NREM sleep bout [6] | paired-pulse ratio (PPR) ([3]; listed as mGluR3 PAM) | paired-pulse ratio (PPR) ([4]; listed as mGluR3 PAM) | length of NREM sleep bout [7] | number of rebound burst firings ([5]; WT TRN neurons, Mavalon 63 in bath, after somatic hyperpolarization pulse, holding potentials −80 mV to −50 mV) | repetitive rebound bursting [8]
1 | Cc1cc(-c2nc(CN3CCNCC3)no2)cc2c1C(=O)N(Cc1ccc(OC(F)(F)F)cc1)C2 [AZD8529, 1H-Isoindol-1-one, 2,3-dihydro-7-methyl-5-[3-(1-piperazinylmethyl)-1,2,4-oxadiazol-5-yl]-2-[[4-(trifluoromethoxy)phenyl]methyl]-] | reduced locomotor activity | reduced locomotor activity | significant increase in the paired-pulse ratio (PPR); also recorded: significantly increased | no significant changes in the size of PPR |  |  |  |  |  |  |  |  |  |  |  |  | 
2 | COc1ccc(C#Cc2ccc(C(=O)N3CCC[C@@H](O)C3)c(F)c2)cc1 [ML337, (R)-(2-fluoro-4-((- 4-methoxy-phenyl)ethynyl)phenyl) (3-hydroxypiperidin-1-yl)methanone] |  |  |  |  | blocked LY379268-induced enhancement of rebound bursting | decrease in the repetitive rebound bursting; also recorded: reduces the repetitive burst firings; also recorded: number of rebound burst firing was reduced |  |  |  |  |  |  |  |  |  |  | 
3 | CN1C(=O)c2cccn2-c2cc(-c3ccc(F)cn3)ccc2C12CC2 [Mavalon 63, 5-Methyl-9-(5-fluoropyridin-2-yl)-spiro [benzo[f]pyrrolo[1,2-a][1,4]diazepine-6,1′-cyclopropan]-4(5H)-one] |  |  | not significantly increased | no significant changes in the size of PPR |  |  | no significant effect on locomotor activity | No effect on the spontaneous locomotion activity | no significant effect on locomotor activity | trend of reducing the hyperactivity | able to normalize the hyperactivity phenotype | specifically increased the Non-REM (NREM) sleep bout length; also recorded: increased the length of NREM sleep bout | No significant changes in PPR | no significant changes in the PPR | no change was observed | significant increase in repetitive rebound bursting; also recorded: increase in the number of rebound burst firings; also recorded: Significant changes were detected at a membrane holding potentials between −70 mV and −60 mV | significant increase in repetitive rebound bursting
